Reference: US20070179181A1, “Treatment of inflammatory disorders and pain using beta-aminoalcohols” (priority 2004, published 2007)

Columns and labels:
alpha1 adrenoceptor = experiment: Alpha1 adrenoceptor binding affinity (3H-prazosin, rat brain homogenate); set-up: species or system Wistar rats; conditions: radioligand 3H-prazosin 0.25 nM
Method: (§1) Adrenoceptor Binding Affinity Brains from Wistar rats were homogenised and incubated with test article (over a concentration range) and the radioligand 3H-prazosin (0.25 nM) for 30 minutes at 25° C., in a 50 mM Tris-HCl, 0.1% ascorbic acid, 10 μM pargyline incubation buffer. After washing, binding was measured by scintillation counting. LPS Mouse Assay

[1] = test system: rat adjuvant model of arthritis; experiment: Rat adjuvant assay (model of arthritis); type: in vivo, Wistar rats
Method: Rat Adjuvant Assay Male Wistar rats (180 to 200 g) were inoculated by subplantar injection of freund's adjuvant (suspension of Mycobacterium butyricum in mineral oil) into the right paw at day 0. Sham inoculations were injected in the same way with 0.9% saline in matched Male Wistar rats. On day 2 animals were weighed. On days 3, 4, 7, 9 and 11 animals were weighed and both their right and left hind paws were measure by plethsymometry by submerging the paw up to the tibiotarsal joint. On day 11, rats with left hind paw volumes increased by 20% were selected for continuance in the study. On the same day continuance rats were administered test article orally (10 ml/kg in distilled water) and from then on once a day until the completion of the study. Left and right hind paw volumes were measured on days 11, 14, 15, 16, 18 and 21.

TNFα = experiment: LPS mouse assay, serum TNFα; type: in vivo, Balb C ByJ mice; conditions: LPS-challenged mouse
Method: as §1, with “Brains” for “Adrenoceptor Binding Affinity Brains”
7 week old Balb C ByJ mice (24-28 g) were administered, either by i.p. (5 ml/kg) or oral (10 ml/kg) administration, with vehicle or test article. 30 minutes later these animals were challenged with an intraperitoneal injection of 1 mg/kg LPS. 2 hours after LPS challenge blood samples were collected under light isoflurane anaesthesia into normal tubes by retro-orbital puncture. Samples were allowed to clot at room temperature and then spun at 6000 g for 3 min at 4° C. Serum was stored at −20° C. until use. Serum TNFa and IL-10 levels were analysed in duplicate by ELISA technique.

Alpha1 affinity (alpha1 adrenoceptor) [nM]	Compound	also measured
2160	CC(C(O)c1ccc(O)cc1)N1CCC(Cc2ccccc2)CC1 (stereo not drawn) [threo (+), Ifenprodil]	
482	CC(C(O)c1ccc(O)cc1)N1CCC(Cc2ccccc2)CC1 (stereo not drawn) [erythro (−), Ifenprodil]	
63	CC(C(O)c1ccc(O)cc1)N1CCC(Cc2ccccc2)CC1 (stereo not drawn) [erythro (+), Ifenprodil]	
439	CC(C(O)c1ccc(O)cc1)N1CCC(Cc2ccccc2)CC1 (stereo not drawn) [threo (−), Ifenprodil]	
	CC(CCc1ccccc1)NCC(O)c1ccc(O)c(C(N)=O)c1 (stereo not shown) [labetalol]	efficacy in rat adjuvant model of arthritis ([1]; 30 mg/kg): Pronounced (and similar) efficacy; efficacy in rat adjuvant model of arthritis ([1]; 100 mg/kg): Pronounced (and similar) efficacy
	CC(NCCc1ccc(O)cc1)C(O)c1ccc(O)cc1 (stereo not shown) [ritodrine]	LPS-induced systemic TNFα release in mouse blood (TNFα): cytokine modulatory activity
